Measured values as given in the supplement of paper PMC10307832.

Tests used:
Assay in all cases: relative viability (nuclei count vs DMSO), 5 days (fraction); higher = more cells survive
201T = system: 201T
Summary of the method: (§1)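 Nuclei were stained with Hoechst during a one-step fixation (final 0.05% Triton X-100, 1% formaldehyde, 1 ug/ml Hoechst) carried out 5 days after dosing, then counted on 4× images. The cells, lung cancer lines in 1536-well plates, had been dosed by pin tool the day after seeding with one drug alone or a fixed anchor-drug dose plus five library-drug doses (not always all listed) in √10 steps. Relative viability is the nuclei count in treated wells divided by that in vehicle wells, and each value is the median of duplicate plates.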

BEN = system: BEN
Summary of the method: as §1

CAL-12T = system: CAL-12T
Summary of the method: as §1

HCC-44 = system: HCC-44
Summary of the method: as §1

HCC-827 = system: HCC-827
Summary of the method: as §1

HOP-62 = system: HOP-62
Summary of the method: as §1

LCLC-103H = system: LCLC-103H
Summary of the method: as §1

LCLC-97TM1 = system: LCLC-97TM1
Summary of the method: as §1

LXF-289 = system: LXF-289
Summary of the method: as §1

NCI-H1395 = system: NCI-H1395
Summary of the method: as §1

NCI-H1437 = system: NCI-H1437
Summary of the method: as §1

NCI-H1650 = system: NCI-H1650
Summary of the method: as §1

NCI-H1793 = system: NCI-H1793
Summary of the method: as §1

NCI-H1944 = system: NCI-H1944
Summary of the method: as §1

NCI-H2087 = system: NCI-H2087
Summary of the method: as §1

NCI-H2228 = system: NCI-H2228
Summary of the method: as §1

NCI-H2405 = system: NCI-H2405
Summary of the method: as §1

NCI-H3122 = system: NCI-H3122
Summary of the method: as §1

NCI-H322M = system: NCI-H322M
Summary of the method: as §1

NCI-H647 = system: NCI-H647
Summary of the method: as §1

NCI-H727 = system: NCI-H727
Summary of the method: as §1

RERF-LC-KJ = system: RERF-LC-KJ
Summary of the method: as §1

SK-LU-1 = system: SK-LU-1
Summary of the method: as §1

## NC(=O)Nc1cc(-c2cccc(F)c2)sc1C(=O)N[C@H]1CCCNC1 [AZD7762] + N=C(N)NC(=N)NCCc1ccccc1 [Phenformin] (partner 250 µM)
201T; first compound 0.01 µM
  relative viability: 0.465
201T; first compound 0.03162 µM
  relative viability: 0.406
201T; first compound 0.1 µM
  relative viability: 0.453
201T; first compound 0.3162 µM
  relative viability: 0.495
201T; first compound 1 µM
  relative viability: 0.442
BEN; first compound 0.01 µM
  relative viability: 0.316
BEN; first compound 0.03162 µM
  relative viability: 0.271
BEN; first compound 0.1 µM
  relative viability: 0.222
BEN; first compound 0.3162 µM
  relative viability: 0.266
BEN; first compound 1 µM
  relative viability: 0.245
CAL-12T; first compound 0.01 µM
  relative viability: 0.605
CAL-12T; first compound 0.03162 µM
  relative viability: 0.559
CAL-12T; first compound 0.1 µM
  relative viability: 0.571
CAL-12T; first compound 0.3162 µM
  relative viability: 0.321
CAL-12T; first compound 1 µM
  relative viability: 0.114
HCC-44; first compound 0.01 µM
  relative viability: 0.154
HCC-44; first compound 0.03162 µM
  relative viability: 0.265
HCC-44; first compound 0.1 µM
  relative viability: 0.16
HCC-44; first compound 0.3162 µM
  relative viability: 0.185
HCC-44; first compound 1 µM
  relative viability: 0.121
HCC-827; first compound 0.01 µM
  relative viability: 0.406
HCC-827; first compound 0.03162 µM
  relative viability: 0.422
HCC-827; first compound 0.1 µM
  relative viability: 0.442
HCC-827; first compound 0.3162 µM
  relative viability: 0.435
HCC-827; first compound 1 µM
  relative viability: 0.249
HOP-62; first compound 0.01 µM
  relative viability: 0.748
HOP-62; first compound 0.03162 µM
  relative viability: 0.665
HOP-62; first compound 0.1 µM
  relative viability: 0.791
HOP-62; first compound 0.3162 µM
  relative viability: 0.616
HOP-62; first compound 1 µM
  relative viability: 0.583
LCLC-103H; first compound 0.01 µM
  relative viability: 0.376
LCLC-103H; first compound 0.03162 µM
  relative viability: 0.35
LCLC-103H; first compound 0.1 µM
  relative viability: 0.352
LCLC-103H; first compound 0.3162 µM
  relative viability: 0.312
LCLC-103H; first compound 1 µM
  relative viability: 0.339
LCLC-97TM1; first compound 0.01 µM
  relative viability: 0.429
LCLC-97TM1; first compound 0.03162 µM
  relative viability: 0.434
LCLC-97TM1; first compound 0.1 µM
  relative viability: 0.479
LCLC-97TM1; first compound 0.3162 µM
  relative viability: 0.406
LCLC-97TM1; first compound 1 µM
  relative viability: 0.433
LXF-289; first compound 0.01 µM
  relative viability: 0.49
LXF-289; first compound 0.03162 µM
  relative viability: 0.54
LXF-289; first compound 0.1 µM
  relative viability: 0.508
LXF-289; first compound 0.3162 µM
  relative viability: 0.445
LXF-289; first compound 1 µM
  relative viability: 0.526
NCI-H1395; first compound 0.01 µM
  relative viability: 0.471
NCI-H1395; first compound 0.03162 µM
  relative viability: 0.47
NCI-H1395; first compound 0.1 µM
  relative viability: 0.491
NCI-H1395; first compound 0.3162 µM
  relative viability: 0.434
NCI-H1395; first compound 1 µM
  relative viability: 0.381
NCI-H1437; first compound 0.01 µM
  relative viability: 0.304
NCI-H1437; first compound 0.03162 µM
  relative viability: 0.225
NCI-H1437; first compound 0.1 µM
  relative viability: 0.328
NCI-H1437; first compound 0.3162 µM
  relative viability: 0.343
NCI-H1437; first compound 1 µM
  relative viability: 0.279
NCI-H1650; first compound 0.01 µM
  relative viability: 0.51
NCI-H1650; first compound 0.03162 µM
  relative viability: 0.48
NCI-H1650; first compound 0.1 µM
  relative viability: 0.439
NCI-H1650; first compound 0.3162 µM
  relative viability: 0.252
NCI-H1650; first compound 1 µM
  relative viability: 0.18
NCI-H1793; first compound 0.01 µM
  relative viability: 0.428
NCI-H1793; first compound 0.03162 µM
  relative viability: 0.416
NCI-H1793; first compound 0.1 µM
  relative viability: 0.278
NCI-H1793; first compound 0.3162 µM
  relative viability: 0.351
NCI-H1793; first compound 1 µM
  relative viability: 0.279
NCI-H1944; first compound 0.01 µM
  relative viability: 0.196
NCI-H1944; first compound 0.03162 µM
  relative viability: 0.23
NCI-H1944; first compound 0.1 µM
  relative viability: 0.231
NCI-H1944; first compound 0.3162 µM
  relative viability: 0.273
NCI-H1944; first compound 1 µM
  relative viability: 0.21
NCI-H2087; first compound 0.01 µM
  relative viability: 0.434
NCI-H2087; first compound 0.03162 µM
  relative viability: 0.513
NCI-H2087; first compound 0.1 µM
  relative viability: 0.566
NCI-H2087; first compound 0.3162 µM
  relative viability: 0.553
NCI-H2087; first compound 1 µM
  relative viability: 0.554
NCI-H2228; first compound 0.01 µM
  relative viability: 0.305
NCI-H2228; first compound 0.03162 µM
  relative viability: 0.348
NCI-H2228; first compound 0.1 µM
  relative viability: 0.223
NCI-H2228; first compound 0.3162 µM
  relative viability: 0.152
NCI-H2228; first compound 1 µM
  relative viability: 0.13
NCI-H2405; first compound 0.01 µM
  relative viability: 0.4
NCI-H2405; first compound 0.03162 µM
  relative viability: 0.452
NCI-H2405; first compound 0.1 µM
  relative viability: 0.402
NCI-H2405; first compound 0.3162 µM
  relative viability: 0.425
NCI-H2405; first compound 1 µM
  relative viability: 0.242
NCI-H3122; first compound 0.01 µM
  relative viability: 0.389
NCI-H3122; first compound 0.03162 µM
  relative viability: 0.412
NCI-H3122; first compound 0.1 µM
  relative viability: 0.416
NCI-H3122; first compound 0.3162 µM
  relative viability: 0.341
NCI-H3122; first compound 1 µM
  relative viability: 0.317
NCI-H322M; first compound 0.01 µM
  relative viability: 0.704
NCI-H322M; first compound 0.03162 µM
  relative viability: 0.85
NCI-H322M; first compound 0.1 µM
  relative viability: 0.747
NCI-H322M; first compound 0.3162 µM
  relative viability: 0.36
NCI-H322M; first compound 1 µM
  relative viability: 0.284
NCI-H647; first compound 0.01 µM
  relative viability: 0.495
NCI-H647; first compound 0.03162 µM
  relative viability: 0.445
NCI-H647; first compound 0.1 µM
  relative viability: 0.494
NCI-H647; first compound 0.3162 µM
  relative viability: 0.315
NCI-H647; first compound 1 µM
  relative viability: 0.106
NCI-H727; first compound 0.01 µM
  relative viability: 0.465
NCI-H727; first compound 0.03162 µM
  relative viability: 0.548
NCI-H727; first compound 0.1 µM
  relative viability: 0.439
NCI-H727; first compound 0.3162 µM
  relative viability: 0.398
NCI-H727; first compound 1 µM
  relative viability: 0.262
RERF-LC-KJ; first compound 0.01 µM
  relative viability: 0.481
RERF-LC-KJ; first compound 0.03162 µM
  relative viability: 0.424
RERF-LC-KJ; first compound 0.1 µM
  relative viability: 0.399
RERF-LC-KJ; first compound 0.3162 µM
  relative viability: 0.4
RERF-LC-KJ; first compound 1 µM
  relative viability: 0.382
SK-LU-1; first compound 0.01 µM
  relative viability: 0.563
SK-LU-1; first compound 0.03162 µM
  relative viability: 0.494
SK-LU-1; first compound 0.1 µM
  relative viability: 0.17
SK-LU-1; first compound 0.3162 µM
  relative viability: 0.139
SK-LU-1; first compound 1 µM
  relative viability: 0.131
